Measurements as given in patent US20230313217A1, “CHLOROPLAST TARGETING PEPTIDES AND CONJUGATES AND COMPOSITIONS THEREOF” (The Regents of the University of California, priority 2021, published 2023).

Columns and labels:
[1] = test system: chloroplasts in leaf mesophyll cells; assay: Chemical cargo (FDA) delivery to chloroplasts, confocal colocalization; assay type: in vivo, Arabidopsis thaliana; settings: FDA alone
From the text: Chemical Cargo and Plasmid DNA and Delivery to Chloroplasts Mediated by Targeted Nanomaterials. To assess the delivery of chemical cargoes to chloroplasts mediated by TP-β-CD nanocarriers, we loaded β-cyclodextrins with the fluorescent dye […] (FDA) (FIG. 4A). We imaged the localization of FDA within leaf mesophyll tissues by confocal microscopy and quantified the localization of this fluorescence dye with chloroplasts autofluorescence (FIG. 4B,C). Plant leaves treated with TP-β-CD-FDA or TP-β-CD (Table 1) were analyzed for the fluorescence emission crosstalk with confocal microscopy under laser excitation with a 488 nm laser (FIG. 13A). […] When added together with CDs or β-CDs, the FDA was observed both in the intracellular and extracellular space. […] In contrast, when FDA was delivered by TP-β-CDs, most of the FDA fluorescence signal was detected inside leaf mesophyll cells and highly colocalized with chloroplasts (70.0±9.5%) (FIG. 4B). […] Although targeted TP-β-CDs improved the delivery of FDA to chloroplasts in leaf mesophyll cells, the FDA fluorescence signal was localized throughout the entire leaf mesophyll cells. […] Colocalization rates of FDA fluorescence with chloroplasts were determined using Mander's coefficient analysis (COLOC2, ImageJ). […]
Confocal Fluorescence Microscopy. […]

[2] = ζ potential of carbon nanostructures (Zetasizer); assay type: physicochemical; settings: neutral charge
Description: The resulting PEI-SWCNT suspension was characterized by measuring the absorbance spectra on a UV-vis absorbance spectrophotometer (UV-2600, Shimadzu). The quality of the SWCNT suspension was determined by analyzing absorbance peaks at 632 nm. This measurement was performed with triplicates. The concentration of the PEI-SWCNT was determined spectrophotometrically using the absorption value at 632 nm and utilizing the equation (absorbance at 632 nm/extinction coefficient of 0.036)=mg L^−1. The final concentration obtained after purification ranged from 18 to 30 mg/L. The nanoparticle ζ potential was measured using a Zetasizer (Nano ZS, Malvern Instruments) in samples suspended in 10 mM TES buffer pH 7.0, with 0.1 mM NaCl. The hydrodynamic size was measured using Zetasizer (Nano ZS, Malvern Instruments) in samples suspended in a 10 mM TES buffer at pH 7.
Characterization of Nanomaterials. All nanomaterials were characterized by absorbance UV-vis spectroscopy (UV-2600 Shimadzu), hydrodynamic size (Nano S), and ζ potential (Nano ZS). The nanomaterial ζ potential and hydrodynamic diameter were measured in a 10 mM TES buffer (pH 7.0). The ζ potential measurements were performed in 0.1 mM NaCl to improve conductivity and analyzed by the Hückel approximation model.^111 CD fluorescence emission was collected using a fluorescence spectrometer (Horiba PTI QM-400). The stepwise synthesis of TP-β-CDs was analyzed using FTIR (Thermo Nicolet 6700 FTIR).

Compound	localization of FDA in leaf mesophyll tissue [1]	charge of chloroplast targeting peptide [2]
O=C(O)c1ccc2c(c1)C1(OC2=O)c2ccc(O)cc2Oc2cc(O)ccc21 [FDA, 6-carboxyfluorescein]	localized near the plasma membrane	
MASSMLSSATMVGGC [chloroplast targeting peptide for CD]		−0.1 mV
